Measurements reported in article PMC12394750, “2H-1,4-Benzoxazin-3(4H)-one linked 1,2,3-triazole derivatives and their study on inducing DNA damage in tumor cells” (Frontiers in Pharmacology, 2025).

What was measured:
[1] = CCK-8 cell viability, L02; format: cell-based; settings: human, L02 normal liver cells
Huh-7 cells [2] = assay: RT-PCR gene expression; format: cell-based, human; settings: Huh-7, 72 h; for Caspase-7 gene expression: c5, c14 30 μM; for ATG7 gene expression / H2AX gene expression / Keap1 gene expression / TNF-α gene expression / p21 gene expression / p53 gene expression: c5, c14, c16 30 μM; for Bax gene expression / Bcl2 gene expression: c14, c16 30 μM
Experimental: To investigate the molecular mechanisms underlying the anti-tumor activity of 2H-1,4-benzoxazin-3(4H)-one linked 1,2,3-triazole derivatives, we examined the expression of key genes involved in cell growth and death, including those related to DNA damage, oxidative stress, apoptosis, and autophagy. Huh-7 cells were treated with compounds c5 (30 μM), c14 (30 μM), c16 (30 μM), and c18 (20 μM) for 72 h, followed by RT-PCR analysis.
FIGURE 5 Compounds c5, c14, c16, and c18 increased the gene expression. (A–D) Huh-7 cells were treated with different concentrations of compounds c5, c14, c16, and c18 (20 or 30 μM) for 72 h. Gene expressions were detected by RT-PCR. Data were presented as means ± SEM; *P < 0.05.
Huh-7 cells were seeded in a 12-well plate and treated with compounds for 72 h. Total RNA was extracted using TRIzol reagent (Ambion, United States), and RT-PCR was performed using PowerUp™ SYBR™ Green Master Mix (ABI, United States). Gene expression was normalized to GAPDH. Values were expressed as mean ± SEM. Statistical significance was assessed using a two-tailed Student’s t-test. P < 0.05 was considered statistically significant.

Huh-7 cells [3] = assay: Western blot protein expression; format: cell-based, human; settings: Huh-7, 72 h (Figure 6 legend 24 h), 20 or 30 μM
Experimental: To further examine the regulatory effects of 2H-1,4-benzoxazin-3(4H)-one linked 1,2,3-triazole derivatives on protein expression, Huh-7 cells were treated with compounds c5, c14, c16, and c18 for 72 h, after which whole-cell protein lysates were collected for analysis.
FIGURE 6 Compounds c5, c14, c16, and c18 affected DNA damage and autophagy. (A–D) Huh-7 cells were treated with different concentrations of compounds c5, c14, c16, and c18 (20 or 30 μM) for 24 h. Protein expressions were analyzed by Western blot. Top: Western blot; bottom: quantitative measurements relative to ACTIN. Data were presented as means ± SEM; *P < 0.05.
Antibodies used in Western blot were as follows: caspase3, caspase9, LC3, γ-H2AX, PARP, cyclin D, cyclin E, β-catenin (all from Cell Signaling Technology, United States), and β-actin (Sigma, United States). Cells were treated with compounds (0 μM, 5 μM, 10 μM, 20 μM, or 30 μM) for 72 h, and the whole-cell proteins were collected using RIPA buffer containing protease/phosphatase inhibitor cocktail. The protein expressions were measured and analyzed using Western blot. Values were expressed as mean ± SEM. Statistical significance was assessed using a two-tailed Student’s t-test. P < 0.05 was considered statistically significant. Data were visualized using GraphPad Prism.

KM mice = assay: Acute toxicity test, HE staining of organs; format: in vivo; settings: male KM mice, 500 mg/kg via gavage, 14 consecutive days
Experimental: We assessed the safety of compound c18 using an acute toxicity test in KM mice. Male mice were divided into a control group and a c18-treated group, with the latter receiving 500 mg/kg of compound c18 via gavage for 14 consecutive days, while the control group received an equivalent volume of solvent. To evaluate the safety of compound c18, major organs—including the heart, liver, spleen, lungs, and kidneys—were collected from treated KM mice and subjected to hematoxylin and eosin (HE) staining.

**Q.** Which viability at 72 h, 50 µM [1] does the source give for `O=C1COc2cc(NC(=O)c3cccc(-c4cn(Cc5ccc(Br)cc5)nn4)c3)ccc2N1` [compound c5, 3-(1-(4-bromobenzyl)-1H-1,2,3-triazol-4-yl)-N-(3-oxo-3,4-dihydro-2H-benzo[b][1,4]oxazin-7-yl)benzamide] here?
**A.** The viability at 72 h, 50 µM was 101 ± 3.35%.

**Q.** And the Atg5 gene expression (Huh-7 cells [2]; c5 30 μM)?
**A.** The Atg5 gene expression was “remained unchanged”.

**Q.** What about the Gpx4 gene expression (Huh-7 cells [2]; c5 30 μM) of the same compound?
**A.** Its Gpx4 gene expression is “either downregulated or unchanged”.

**Q.** And the Nrf2 gene expression (Huh-7 cells [2]; c5 30 μM)?
**A.** Its Nrf2 gene expression is “either downregulated or unchanged”.

**Q.** And the Caspase-7 gene expression (Huh-7 cells [2])?
**A.** Its Caspase-7 gene expression is “notably increased”.

**Q.** And the ATG7 gene expression (Huh-7 cells [2]; c18 20 μM)?
**A.** Its ATG7 gene expression is “downregulated”.

**Q.** What about the H2AX gene expression (Huh-7 cells [2]; c18 20 μM) of the same compound?
**A.** Its H2AX gene expression is “no significant changes”.

**Q.** What about the Keap1 gene expression (Huh-7 cells [2]; c18 20 μM) of the same compound?
**A.** The Keap1 gene expression was “significantly upregulated”.

**Q.** What about the TNF-α gene expression (Huh-7 cells [2]; c18 20 μM) of the same compound?
**A.** Its TNF-α gene expression is “significantly upregulated”.

**Q.** What about the p21 gene expression (Huh-7 cells [2]; c18 20 μM) of the same compound?
**A.** Its p21 gene expression is “no significant changes”.

**Q.** What about the p53 gene expression (Huh-7 cells [2]; c18 20 μM) of the same compound?
**A.** The p53 gene expression was “no significant changes”.

**Q.** And the H2AX protein expression (Huh-7 cells [3])?
**A.** The H2AX protein expression was “upregulated”.

**Q.** What about the LC3 protein expression (Huh-7 cells [3]) of the same compound?
**A.** The LC3 protein expression was “significantly induced”.

**Q.** And the PARP protein expression (Huh-7 cells [3])?
**A.** The PARP protein expression was “upregulated”.

**Q.** And the caspase-3 protein expression (Huh-7 cells [3])?
**A.** Its caspase-3 protein expression is “upregulated”.

**Q.** And the “cyclin D protein expression” value (Huh-7 cells [3])?
**A.** Its value is “downregulated”.

**Q.** With `O=C1COc2cc(NC(=O)c3cccc(-c4cn(Cc5ccc(Cl)cc5)nn4)c3)ccc2N1` [compound c18, 3-(1-(4-chlorobenzyl)-1H-1,2,3-triazol-4-yl)-N-(3-oxo-3,4-dihydro-2H-benzo[b][1,4]oxazin-7-yl)benzamide] as the compound, how does the viability at 72 h, 50 µM [1] read?
**A.** The viability at 72 h, 50 µM was 117 ± 1.27%.

**Q.** And the ATG7 gene expression (Huh-7 cells [2]; c18 20 μM)?
**A.** Its ATG7 gene expression is “downregulated”.

**Q.** And the Keap1 gene expression (Huh-7 cells [2]; c18 20 μM)?
**A.** The Keap1 gene expression was “dramatically upregulated”.

**Q.** What about the p21 gene expression (Huh-7 cells [2]; c18 20 μM) of the same compound?
**A.** Its p21 gene expression is “dramatically upregulated”.

**Q.** And the apoptosis-related gene expression (Huh-7 cells [2]; c18 20 μM)?
**A.** The apoptosis-related gene expression was “no changes”.

**Q.** And the H2AX protein expression (Huh-7 cells [3])?
**A.** Its H2AX protein expression is “upregulation”.

**Q.** What about the LC3 protein expression (Huh-7 cells [3]) of the same compound?
**A.** The LC3 protein expression was “upregulation”.

**Q.** And the PARP protein expression (Huh-7 cells [3])?
**A.** Its PARP protein expression is “upregulation”.

**Q.** And the “cyclin D protein expression” value (Huh-7 cells [3])?
**A.** Its value is “downregulation”.

**Q.** What about the “Histopathological changes of heart, liver, spleen, lungs, kidneys (HE staining)” value (KM mice) of the same compound?
**A.** Its value is “no significant histopathological changes”.

**Q.** Which viability at 72 h, 50 µM [1] does the source give for `O=C1COc2cc(NC(=O)c3cccc(-c4cn(Cc5cccc(F)c5)nn4)c3)ccc2N1` [compound c14, 3-(1-(3-fluorobenzyl)-1H-1,2,3-triazol-4-yl)-N-(3-oxo-3,4-dihydro-2H-benzo[b][1,4]oxazin-7-yl)benzamide] here?
**A.** The viability at 72 h, 50 µM was 116 ± 1.18%.

**Q.** What about the Caspase-7 gene expression (Huh-7 cells [2]) of the same compound?
**A.** Its Caspase-7 gene expression is “no significant changes”.

**Q.** And the H2AX gene expression (Huh-7 cells [2]; c18 20 μM)?
**A.** Its H2AX gene expression is “significantly upregulated”.

**Q.** And the Keap1 gene expression (Huh-7 cells [2]; c18 20 μM)?
**A.** The Keap1 gene expression was “significantly increased”.

**Q.** What about the p21 gene expression (Huh-7 cells [2]; c18 20 μM) of the same compound?
**A.** Its p21 gene expression is “unchanged or downregulated”.

**Q.** And the p53 gene expression (Huh-7 cells [2]; c18 20 μM)?
**A.** The p53 gene expression was “unchanged or downregulated”.

**Q.** What about the autophagy-related gene expression (Huh-7 cells [2]; c14 30 μM) of the same compound?
**A.** The autophagy-related gene expression was “No differences”.

**Q.** And the caspase-6 gene expression (Huh-7 cells [2]; c14 30 μM)?
**A.** Its caspase-6 gene expression is “no significant changes”.

**Q.** And the Bax gene expression (Huh-7 cells [2])?
**A.** Its Bax gene expression is “no significant changes”.

**Q.** What about the Bcl2 gene expression (Huh-7 cells [2]) of the same compound?
**A.** The Bcl2 gene expression was “significantly increased”.

**Q.** And the H2AX protein expression (Huh-7 cells [3])?
**A.** Its H2AX protein expression is “upregulation”.

**Q.** And the LC3 protein expression (Huh-7 cells [3])?
**A.** Its LC3 protein expression is “upregulation”.

**Q.** And the PARP protein expression (Huh-7 cells [3])?
**A.** Its PARP protein expression is “upregulation”.

**Q.** What about the “cyclin D protein expression” value (Huh-7 cells [3]) of the same compound?
**A.** The value was “downregulation”.

**Q.** Which results are given for `O=C1COc2cc(NC(=O)c3cccc(-c4cn(Cc5ccc(C(F)(F)F)cc5)nn4)c3)ccc2N1` [compound c16, N-(3-oxo-3,4-dihydro-2H-benzo[b][1,4]oxazin-7-yl)-3-(1-(4-(trifluoromethyl)benzyl)-1H-1,2,3-triazol-4-yl)benzamide]?
**A.** viability at 72 h, 50 µM [1]: 117 ± 1.41%; ATG7 gene expression (Huh-7 cells [2]; c18 20 μM): downregulated; H2AX gene expression (Huh-7 cells [2]; c18 20 μM): markedly upregulated; TNF-α gene expression (Huh-7 cells [2]; c18 20 μM): markedly upregulated; p53 gene expression (Huh-7 cells [2]; c18 20 μM): markedly upregulated; Bax gene expression (Huh-7 cells [2]): elevated; Bcl2 gene expression (Huh-7 cells [2]): elevated; H2AX protein expression (Huh-7 cells [3]): upregulation; LC3 protein expression (Huh-7 cells [3]): upregulation; PARP protein expression (Huh-7 cells [3]): upregulation; cyclin D protein expression (Huh-7 cells [3]): downregulation
